Source: patent US6706741B2, “Acetylcholinesterase inhibitors containing 1-benzyl-pyridinium salts” (priority 2000, dated 2004)

Target: T1, acetylcholinesterase (Rattus norvegicus, UniProt P37136)
T1 construct: Using a rat brain homogenate as a source of acetylcholinesterase; from tissue; host or cells: rat brain homogenate
Test: biochemical
Conditions: rat brain homogenate as source of acetylcholinesterase; acetylthiocholine substrate, DTNB, absorbance at 412 nm
Procedure: Using a rat brain homogenate as a source of acetylcholinesterase, the esterase activity was determined in accordance with the method of Ellman et al^1).
^1); Ellman. G. L., Courtney, K. D., Andres, V. and Featherstone, R. M., (1961), Biochem. Pharmacol., 7, 88-95.

T1 sequence (P37136 32-614): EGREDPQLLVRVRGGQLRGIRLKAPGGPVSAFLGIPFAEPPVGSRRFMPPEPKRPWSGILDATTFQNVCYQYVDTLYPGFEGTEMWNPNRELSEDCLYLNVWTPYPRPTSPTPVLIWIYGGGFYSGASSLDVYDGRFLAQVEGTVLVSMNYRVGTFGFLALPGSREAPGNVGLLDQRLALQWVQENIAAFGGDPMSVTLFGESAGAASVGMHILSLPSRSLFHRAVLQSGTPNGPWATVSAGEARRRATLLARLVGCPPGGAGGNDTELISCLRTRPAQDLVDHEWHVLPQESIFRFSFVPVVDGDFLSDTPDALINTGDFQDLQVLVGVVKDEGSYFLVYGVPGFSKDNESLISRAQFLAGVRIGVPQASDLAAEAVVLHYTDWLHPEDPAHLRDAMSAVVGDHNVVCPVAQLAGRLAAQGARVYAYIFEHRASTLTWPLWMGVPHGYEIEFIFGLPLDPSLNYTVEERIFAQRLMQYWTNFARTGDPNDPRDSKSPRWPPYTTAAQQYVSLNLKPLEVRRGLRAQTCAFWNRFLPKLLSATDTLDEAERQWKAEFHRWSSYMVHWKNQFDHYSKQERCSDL

COc1cc2c(cc1OC)C(=O)C(Cc1cc[n+](Cc3ccccc3)cc1)C2 (stereo not shown) [Example 1, 1-Benzyl-4-[(5.6-dimethoxy-1-indanone)-2-yl]methylpyridinium bromide]
IC50: 3.8 nM
